{"source": "patent US7307166B1", "about": "“Oxpurine nucleosides and their congeners, and acyl, derivatives thereof, for improvement of hematopoiesis” (Wellstat Therapeutics Corporation, priority 1987, dated 2007)", "key": {"bone marrow cells": {"system": "bone marrow cells", "assay": "Colony forming units in bone marrow of mice recovering from cyclophosphamide", "type": "in vivo, mouse", "experimental": "Seventy-two Balb/C female mice weighing approximately 20-grams each were given cyclophosphamide (275 mg/kg) by intraperitoneal (i.p.) injection. Twenty-four hours later and each day thereafter, mice received a 0.4 ml i.p. injection of either physiological saline (control) or palmitoylguanosine (2.5 μmoles/mouse/day in 0.2% Tween 80). On days 3, 5, 7, and 10 following CP administration 6 animals from each group were sacrificed by cervical dislocation, and the left femur of each animal obtained by sterile means. The bone marrow cells were then flushed from the femurs with McCoy's 5a Modified medium using a 23-gauge needle. Cells from femurs in the same group were pooled, dispersed by briefly vortexing, and counted using a hemocytometer. Cell suspensions were added to McCoy's Modified 5a medium containing 15% bovine calf serum, 1× Kanamycin, 0.3% agar, and 3% endotoxin-stimulated serum. […] Each group was plated in quintuplicate. After 7 days in culture (at 37° in 5% CO2 and humidified air) aggregates of 50 cells or more (“colonies”) were counted using a dissecting microscope at 25×."}, "TNF-alpha": {"system": "TNF-alpha", "assay": "LPS-induced serum TNF-alpha (ELISA)", "type": "in vivo, mouse", "experimental": "(§1) Sixty-three female Balb/C mice were randomly assigned to one of three groups. The animals in one group received a single daily dose of N^2,3′,5′-tripalmitoyldeoxyguanosine (PdG) (25 mg/kg, i.p.), while a second group received a single daily dose of the PdG treatment vehicle (control). The third group was left untreated. On the fourth day 100 μg salmonella typhimurium LPS was administered to all three groups. Serum samples were taken just prior to LPS administration (t=0) and at two, four, six, eight, ten, twelve, sixteen, and twenty hours after LPS administration. The samples were then frozen until the time of assay. Serum levels of TNF-alpha, and IFN-gamma were measured by ELISA.\nIn the tables below, units for cytokine concentrations are picograms per ml. A value of 0 indicates cytokine levels below the detection limit of the assay (50 to 100 pg/ml)."}, "FDCPmix cells": {"system": "FDCPmix cells", "assay": "FDCPmix cell proliferation in the presence of IL-3 (MTT assay)", "type": "cell-based", "experimental": "The FDCPmix cell line was used as a suitable in vitro model for predicting the effects of hematopoietic factors on pluripotential stem cells. These cells can be maintained in an undifferentiated state in the presence of IL-3 or undergo multi-lineage development in the presence of specific hematopoietic growth factors.\nThis level of proliferation (100%) served as the control value. Inhibition of proliferation by test compounds was represented as a percent of control.\nFDCPmix cells were plated at a density of 5×10^4 cells per well in 96-well plates (5×10^5/ml) using IMDM medium plus 10% fetal bovine serum. […] Test compounds were added at a decreasing concentrations ranging from 10 micrograms/ml down to 1 nanogram/ml. The test compounds included: 3′,5′-O—N^2-tripalmitoyl-2′-deoxyguanosine, 3′,5′-di-O-palmitoyl-2′-deoxy-guanosine, 3′,5′-O—N^2-trioctanoyl-2′-deoxyguanosine, 3′,5′-di-O-octanoyl-2′-deoxyguanosine, and 3′,5′-o-N^2-trioleyl-2′-deoxy-guanosine."}, "[1]": {"system": "IL-3-dependent bone marrow cells", "assay": "Apoptosis of IL-3-dependent bone marrow cells deprived of IL-3 (trypan blue exclusion)", "type": "cell-based, mouse", "settings": "10 micrograms per milliliter"}, "interleukin-6": {"system": "interleukin-6", "assay": "LPS-induced elevation of serum interleukin-6", "type": "in vivo, mouse", "settings": "PdG 25 mg/kg i.p.", "experimental": "as §1\n(§2) PdG also attenuated LPS-induced elevation of serum interleukin-1-alpha and interleukin-6."}, "female Balb/C mice": {"system": "female Balb/C mice", "assay": "Survival after bacterial endotoxin (salmonella typhimurium LPS)", "type": "in vivo, mouse", "settings": "21-day observation; LPS 100 μg (5 mg/kg); 25 mg/kg i.p. daily 3 days prior", "experimental": "In an experiment to test the effect of N^2,3′,5′-tripalmitoyldeoxyguanosine (PdG) on animals challenged by endotoxin, 42 female Balb/C mice were divided into three groups of 14 animals each. Each group was given a single 100 μg dose (5 mg/kg) of salmonella typhimurium LPS. Two of the groups were treated once per day for three days prior to receiving the LPS by intraperitoneal injection with either 25 mg/kg PdG or with vehicle alone. The third group received no pretreatment. Survival of the animals was monitored for 21 days subsequent to the LPS dose."}, "male CDF8F1 mice": {"system": "male CDF8F1 mice", "assay": "Doxorubicin-induced myelosuppression", "type": "in vivo, mouse", "experimental": "Doxorubicin (Adriamycin) is a widely-used anticancer agent effective against breast carcinoma, sarcomas, small-cell lung cancer, ovarian cancer, thyroid cancer, Hodgkin's Disease and non-Hodgkins lymphoma. Its clinical application is limited by its cardiac and hematologic toxicities. A study was conducted to assess the effect of N^2 3′,5′-tripalmitoyldeoxyguanosine (PdG) in reducing the hematologic toxicity of doxorubicin. Eighty male CDF8F1 mice were divided into three groups. One group received no treatment and served as basal control animals. Animals in the other two groups were each given a single dose of doxorubicin at a dose of 11 mg/kg by intraperitoneal injection. Beginning 24 hours later, animals in the two groups received three daily doses by intraperitoneal injection of either PdG or vehicle only. Blood samples were obtained by retro-orbital eye bleed just prior to administration of doxorubicin and then 4, 8, 11 and 14 days thereafter. Complete blood cell counts with differential were determined."}, "hematopoietic stem cells": {"system": "hematopoietic stem cells", "assay": "Stem cell mobilization", "type": "in vivo, mouse"}, "interleukin-1-alpha": {"system": "interleukin-1-alpha", "assay": "LPS-induced elevation of serum interleukin-1-alpha", "type": "in vivo, mouse", "settings": "PdG 25 mg/kg i.p.", "experimental": "as §1, §2"}, "[2]": {"settings": "Day 4 after doxorubicin 11 mg/kg"}, "[3]": {"settings": "Day 8 after doxorubicin 11 mg/kg"}, "[4]": {"settings": "Day 14 after doxorubicin 11 mg/kg"}}, "data": [{"compound": "CCCCCCCCCCCCCCCC(=O)OC[C@H]1O[C@@H](n2cnc3c(=O)[nH]c(N)nc32)[C@H](O)[C@@H]1O", "values": [{"measurement": "colony-forming units per femur", "setting": "bone marrow cells; Day 3 after CP, 2.5 μmoles/mouse/day in 0.2% Tween 80 i.p.", "value": "645 ± 26"}, {"measurement": "colony-forming units per femur", "setting": "bone marrow cells; Day 5 after CP, 2.5 μmoles/mouse/day", "value": "2327 ± 121"}, {"measurement": "colony-forming units per femur", "setting": "bone marrow cells; Day 7 after CP, 2.5 μmoles/mouse/day", "value": "1328 ± 140"}, {"measurement": "colony-forming units per femur", "setting": "bone marrow cells; Day 10 after CP, 2.5 μmoles/mouse/day", "value": "647 ± 25"}]}, {"compound": "CCCCCCCCCCCCCCCC(=O)Nc1nc2c(ncn2[C@H]2C[C@H](OC(=O)CCCCCCCCCCCCCCC)[C@@H](COC(=O)CCCCCCCCCCCCCCC)O2)c(=O)[nH]1", "note": "[PdG, 3′,5′-O-N^2-tripalmitoyl-2′-deoxyguanosine]", "values": [{"measurement": "serum TNF-alpha", "setting": "TNF-alpha; 0 hr after LPS 100 μg, PdG 25 mg/kg i.p. daily before, 0 = below detection limit", "value": 0, "unit": "picograms per ml"}, {"measurement": "serum TNF-alpha", "setting": "TNF-alpha; 2 hr after LPS", "value": "1509 ± 86", "unit": "picograms per ml"}, {"measurement": "serum TNF-alpha", "setting": "TNF-alpha; 4 hr after LPS", "value": "529 ± 141", "unit": "picograms per ml"}, {"measurement": "serum TNF-alpha", "setting": "TNF-alpha; 6 hr after LPS", "value": "486 ± 63", "unit": "picograms per ml"}, {"measurement": "Peak TNF-alpha levels vs control groups", "setting": "TNF-alpha; PdG 25 mg/kg i.p.", "value": "four-fold lower"}, {"measurement": "Cell proliferation (% of Control)", "setting": "FDCPmix cells; Dose 10 ng", "value": "78 ± 1 % of Control"}, {"measurement": "Cell proliferation (% of Control)", "setting": "FDCPmix cells; Dose 39 ng", "value": "76 ± 2 % of Control"}, {"measurement": "Cell proliferation (% of Control)", "setting": "FDCPmix cells; Dose 156 ng", "value": "72 ± 3 % of Control"}, {"measurement": "Cell proliferation (% of Control)", "setting": "FDCPmix cells; Dose 625 ng", "value": "60 ± 2 % of Control"}, {"measurement": "Cell proliferation (% of Control)", "setting": "FDCPmix cells; Dose 2.5 μg", "value": "51 ± .7 % of Control"}, {"measurement": "Cell proliferation (% of Control)", "setting": "FDCPmix cells; Dose 10 μg, 48 hours, IL-3 25 units/ml", "value": "51 ± .6 % of Control"}, {"measurement": "% Dead Cells", "setting": "[1]; 40 hr after IL-3 wash", "value": "18.0 ± 3.0", "unit": "%"}, {"measurement": "% Dead Cells", "setting": "[1]; 60 hr after IL-3 wash", "value": "16.0 ± 1.5", "unit": "%"}, {"measurement": "% Dead Cells", "setting": "[1]; 84 hr after IL-3 wash", "value": "15.3 ± 5.5", "unit": "%"}, {"measurement": "LPS-induced elevation of serum interleukin-6", "setting": "interleukin-6", "value": "attenuated"}, {"measurement": "survival", "setting": "female Balb/C mice", "value": "All"}, {"measurement": "Lymphocytes", "setting": "male CDF8F1 mice; [2]", "value": "8.07 ± 1.21", "unit": "K/μL"}, {"measurement": "Neutrophils", "setting": "male CDF8F1 mice; [2]", "value": "4.35 ± 0.73", "unit": "K/μL"}, {"measurement": "WBC", "setting": "male CDF8F1 mice; Day 4 after doxorubicin 11 mg/kg i.p., PdG 3 daily i.p. doses from 24 h after", "value": "13.2 ± 1.59", "unit": "K/μL"}, {"measurement": "Lymphocytes", "setting": "male CDF8F1 mice; [3]", "value": "1.63 ± 0.13", "unit": "K/μL"}, {"measurement": "Neutrophils", "setting": "male CDF8F1 mice; [3]", "value": "2.47 ± 0.28", "unit": "K/μL"}, {"measurement": "WBC", "setting": "male CDF8F1 mice; [3]", "value": "4.57 ± 0.35", "unit": "K/μL"}, {"measurement": "WBC", "setting": "male CDF8F1 mice; Day 11 after doxorubicin 11 mg/kg", "value": "3.95 ± 0.42", "unit": "K/μL"}, {"measurement": "Lymphocytes", "setting": "male CDF8F1 mice; [4]", "value": "2.0 ± 0.15", "unit": "K/μL"}, {"measurement": "Neutrophils", "setting": "male CDF8F1 mice; [4]", "value": "2.3 ± 0.26", "unit": "K/μL"}, {"measurement": "WBC", "setting": "male CDF8F1 mice; [4]", "value": "5.0 ± 0.39", "unit": "K/μL"}, {"measurement": "mobilization of stem cells", "setting": "hematopoietic stem cells; PdG alone 25 mg/kg", "value": "can induce the mobilization"}, {"measurement": "response to cyclophosphamide (stem cell mobilization) with PdG", "setting": "hematopoietic stem cells; PdG with cyclophosphamide", "value": "seven to eight-fold greater"}, {"measurement": "mobilizing stem cells in intact and splenectomized mice", "setting": "hematopoietic stem cells; with and without cyclophosphamide co-treatment", "value": "equally effective"}, {"measurement": "LPS-induced elevation of serum interleukin-1-alpha", "setting": "interleukin-1-alpha", "value": "attenuated"}]}]}
